From ChEMBL document CHEMBL5154927, “Discovery of Novel Bicyclic Phenylselenyl-Containing Hybrids: An Orally Bioavailable, Potential, and Multiacting Class of Estrogen Receptor Modulators against Endocrine-Resistant Breast Cancer” (J Med Chem, 2022)
The source made the active and inactive calls. The rule behind the calls is not given here.

Assays:
[1] = Tmax in BALB/C mouse at 20 mg/kg, po by LC-MS/MS analysis; assay type: ADME, organism-based; conditions: in vivo
MCF7 [2] = experiment: Antitumor activity against human MCF7 cells xenografted in BALB/C mouse assessed as increase in tumor necrosis area at 20 mg/kg, po […]; assay type: functional, organism-based
LCC2 [3] = experiment: Induction of apoptosis in tamoxifen-resistant human LCC2 cells assessed as decrease in Bcl2 level at 5 to 30 uM incubated for 48 hrs by western blot analysis; assay type: functional, cell-based; conditions: dose 5-30 µM
LCC2 [4] = experiment: Induction of ROS production in tamoxifen-resistant human LCC2 cells at 1 to 4 uM measured after 48 hrs by DCFH-DA staining based confocal laser scanning microscopic method; assay type: functional, cell-based; conditions: dose 1-4 µM
MCF7 [5] = experiment: Antitumor activity against human MCF7 cells xenografted in BALB/C mouse assessed as decrease in cell proliferation at 20 mg/kg, po by Ki67 staining based immunohistochemical analysis; assay type: functional, organism-based
MCF7 [6] = experiment: Antitumor activity against human MCF7 cells xenografted in BALB/C mouse assessed as reduction of tumor volume at 20 mg/kg, po measured every 2 days for 34 days; assay type: functional, organism-based; conditions: time 34.0 day
MCF7 [7] = experiment: Induction of mitochondrial membrane potential loss in human MCF7 cells at 1 uM incubated for 48 hrs by JC-1 staining based flow cytometry relative to control; assay type: functional
LCC2 [8] = experiment: Induction of apoptosis in tamoxifen-resistant human LCC2 cells at 5 to 30 uM incubated for 48 hrs by annexin V-FITC staining based flow cytometry; assay type: functional, cell-based; conditions: dose 5-30 µM
MCF7 [9] = experiment: Induction of apoptosis in human MCF7 cells assessed as total apoptotic cells at 1 uM incubated for 48 hrs by annexin V-FITC staining based flow cytometry; assay type: functional
LCC2 [10] = experiment: Downregulation of hexokinase-1 expression in tamoxifen-resistant human LCC2 cell mitochondria at 20 uM measured after 24 hrs by DAPI staining based immunofluorescence microscopy; assay type: functional
MCF7 [11] = experiment: Induction of mitochondrial membrane potential loss in human MCF7 cells incubated for 48 hrs by JC-1 staining based flow cytometry; assay type: functional, cell-based; conditions: dose 1-4 µM, DDE = dose-dependent effect
MCF7 [12] = experiment: Downregulation of hexokinase-1 expression in human MCF7 cell mitochondria at 16 uM measured after 24 hrs by DAPI staining based immunofluorescence microscopy; assay type: functional
[13] = Cmax in BALB/C mouse at 5 mg/kg, iv by LC-MS/MS analysis; assay type: ADME, organism-based; design: dose 5 mg/kg, route iv; conditions: in vivo
[14] = Antitumor activity against tamoxifen-resistant human LCC2 cells xenografted in BALB/C mouse assessed as tumor growth inhibition at 20 mg/kg, po measured every 2 days for 22 days; assay type: functional; conditions: LCC2, 528 h, time 22 day, read-out: TGI
LCC2 [15] = experiment: Induction of apoptosis in tamoxifen-resistant human LCC2 cells assessed as increase in Bax level at 5 to 30 uM incubated for 48 hrs by western blot analysis; assay type: functional, cell-based; conditions: dose 5-30 µM
[16] = target: T1, Hexokinase-1 (Homo sapiens) (UniProt P19367); experiment: Binding affinity to hexokinase-1 in human MCF7 cell lysate measured after overnight incubation by LC-MS/MS analysis; assay type: subcellular; conditions: filed as antagonist, time 14.0 hrs
T1 sequence (whole entry): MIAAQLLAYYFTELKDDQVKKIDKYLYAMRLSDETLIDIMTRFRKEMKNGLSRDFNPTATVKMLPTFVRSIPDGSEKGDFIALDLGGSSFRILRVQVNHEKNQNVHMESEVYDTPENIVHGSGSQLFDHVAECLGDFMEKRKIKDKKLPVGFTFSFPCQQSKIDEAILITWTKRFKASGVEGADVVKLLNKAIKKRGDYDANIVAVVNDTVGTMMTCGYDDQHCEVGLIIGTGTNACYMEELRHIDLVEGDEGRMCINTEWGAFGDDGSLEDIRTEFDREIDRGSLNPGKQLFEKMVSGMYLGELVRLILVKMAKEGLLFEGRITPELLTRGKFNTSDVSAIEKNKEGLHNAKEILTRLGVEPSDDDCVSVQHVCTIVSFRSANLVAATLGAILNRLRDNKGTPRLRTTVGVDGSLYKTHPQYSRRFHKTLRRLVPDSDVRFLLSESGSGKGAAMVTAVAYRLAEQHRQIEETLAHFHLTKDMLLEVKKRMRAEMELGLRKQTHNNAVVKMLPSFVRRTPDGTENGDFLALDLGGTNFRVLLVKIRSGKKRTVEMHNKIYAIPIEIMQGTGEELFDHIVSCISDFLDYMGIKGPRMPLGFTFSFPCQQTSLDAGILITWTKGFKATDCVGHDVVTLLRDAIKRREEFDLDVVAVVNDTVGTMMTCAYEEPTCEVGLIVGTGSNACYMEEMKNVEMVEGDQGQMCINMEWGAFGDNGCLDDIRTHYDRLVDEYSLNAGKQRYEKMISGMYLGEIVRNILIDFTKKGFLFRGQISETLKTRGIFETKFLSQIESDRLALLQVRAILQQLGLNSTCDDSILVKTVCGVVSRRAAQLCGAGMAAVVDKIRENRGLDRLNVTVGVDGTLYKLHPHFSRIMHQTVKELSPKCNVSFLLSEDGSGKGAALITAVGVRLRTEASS

[17] = Half life in BALB/C mouse at 20 mg/kg, po by LC-MS/MS analysis; assay type: ADME, organism-based; conditions: in vivo
[18] = Tmax in BALB/C mouse at 5 mg/kg, iv by LC-MS/MS analysis; assay type: ADME, organism-based; conditions: in vivo
[19] = Toxicity in BALB/C mouse xenografted with human MCF7 cells assessed as morphological changes in heart at 10 to 20 mg/kg, po by hematoxylin and eosin staining based analysis; assay type: organism-based; conditions: in vivo, dose 10-20 mg/kg
[20] = Volume of distribution at steady state in BALB/C mouse at 5 mg/kg, iv by LC-MS/MS analysis; assay type: ADME, organism-based; conditions: in vivo, read-out: Vdss
[21] = Cmax in BALB/C mouse at 20 mg/kg, po by LC-MS/MS analysis; assay type: ADME, organism-based; design: dose 20 mg/kg, route po; conditions: in vivo

## O=S(=O)(Oc1cccc2ccccc12)C1CC2OC1C(c1ccc([Se]c3ccccc3)cc1)=C2c1ccc(O)cc1 (stereo unspecified)
[1]
  Tmax: 120 min
MCF7 [2]
  Activity: Active
LCC2 [3]
  Activity: Active
LCC2 [4]
  Activity: Active
MCF7 [5]
  Activity: Active
MCF7 [6]
  Activity: Active
MCF7 [7]
  Activity: 9.61%
LCC2 [8]
  Activity: Active
MCF7 [9]
  Activity: 15.15%
LCC2 [10]
  Activity: Active
MCF7 [11]
  Activity: Dde
MCF7 [12]
  Activity: Active
[13]
  Cmax: 1490 ng/mL
[14]
  inhibition in vivo at 20 mg/kg: 57.3%
LCC2 [15]
  Activity: Active
[16]
  Activity: Active
[17]
  half-life: 55.8 min
[18]
  Tmax: 4.98 min
[19]
  Activity: Non-Toxic
[20]
  Vd: 21.6 L/kg
[21]
  Cmax: 400 ng/mL
